Test [1] relates to sexually experienced male rats (Sprague-Dawley rats). In words: Non-contact penile erections in sexually experienced male rats (animal model of drug-induced sexual dysfunction). Conditions: for Reversal of fluoxetine-induced sexual dysfunction: administered acutely after 7 or 14 days of fluoxetine treatment; for Prevention of deficit in non-contact penile erections produced by chronic fluoxetine: co-administered with fluoxetine 10 mg/kg for 7 or 14 days, Example compound 3 1 mg/kg, Example compound 2 0.3 mg/kg. Type of test: in vivo. Here is the method: The animal model is based on the finding that sexually experienced rats that are administered an SSRI, a drug used to treat certain conditions such as depression, display a reduction in the number of non-contact penile erections. SSRI treatment is associated with sexual dysfunction in human subjects. In general, the animal model exposes sexually experienced male rats (Sprague-Dawley rats) to female rats in estrous in a novel testing arena that is not the regular housing environment.
The ability of various drugs associated with sexual dysfunction in humans to cause sexual dysfunction in the animal model was tested using three different drugs, bupropion (20 mg/kg), desipramine (10 mg/kg), and fluoxetine (10 mg/kg), or vehicle alone (0.9% saline), each administered intraperitoneally (i.p.), once per day for 14 days. After the treatment period, animals were tested for the frequency of non-contact penile erections over a 30 minute trial period.
To examine the time course of the effects of a drug that causes sexual dysfunction, rats that were handled and tested as described above were treated acutely: rats were treated with vehicle for 6 days, and on the test day (day 7) instead of vehicle, the animals received a single dose of fluoxetine in vehicle (i.p.). For a subchronic (7 day) study, fluoxetine was administered each day for 7 days and the animals were evaluated on test day 7. For the chronic 14 day study, fluoxetine was administered each day for 14 days and the animals were tested on day 14. Each fluoxetine dose was 10 mg/kg in vehicle and was delivered i.p. on each of the test days as described above.
To test the ability of a 5-HT1A antagonist to ameliorate the effects of sexual dysfunction, sexually experienced rats were administered an SSRI using an acute or subchronic (7 day) schedule and then tested for sexual function as described above.
In these experiments, rats were treated with vehicle only on days 1-13 then administered a single acute dose of 0.1 mg/kg of the compound (group 1), vehicle only for days 1-13 and a single dose of 1.0 mg/kg compound in vehicle on day 14 (group 2), only vehicle on days 1-14 (group 3), fluoxetine on days 1-14 (group 4), fluoxetine on days 1-13 and a single administration of 0.1 mg/kg of the compound and fluoxetine on day 14 (group 5); and fluoxetine on days 1-13 and a single dose of 1.0 mg/kg compound with fluoxetine on day 14 (group 6). For each group, behavior testing was performed for 30 minutes immediately following drug administration on day 14 only.
Experiments were conducted to assess the ability of a 5-HT1A antagonist to prevent the effects of SSRI treatment. Rats, as described supra, were co-administered a 5-HT1A antagonist and an SSRI. […] The administered SSRI was fluoxetine (10 mg/kg). The 5-HT1A antagonist and SSRI were co-administered for 7 or 14 days with the SSRI.

Test [2] concerns the target T1, 5-HT1A (Rattus norvegicus, UniProt P19327).
T1 construct: from tissue; host or cells: whole animal (rat), behavioural model
T1 sequence (P19327 1-422): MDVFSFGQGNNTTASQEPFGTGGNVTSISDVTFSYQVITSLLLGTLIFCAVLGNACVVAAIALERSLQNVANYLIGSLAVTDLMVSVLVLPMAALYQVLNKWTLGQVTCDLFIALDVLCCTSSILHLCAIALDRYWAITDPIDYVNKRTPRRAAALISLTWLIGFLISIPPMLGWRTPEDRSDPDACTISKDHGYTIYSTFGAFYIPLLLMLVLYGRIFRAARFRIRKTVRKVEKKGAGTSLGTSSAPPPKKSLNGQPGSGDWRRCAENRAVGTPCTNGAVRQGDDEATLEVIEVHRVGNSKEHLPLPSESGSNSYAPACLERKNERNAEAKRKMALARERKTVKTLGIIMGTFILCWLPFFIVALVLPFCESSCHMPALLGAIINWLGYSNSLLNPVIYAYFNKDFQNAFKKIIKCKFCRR
In words: Duration of action in the Fixed Responding Model. Type of test: in vivo, rats. An excerpt: All drug and vehicle administrations were made by the subcutaneous route.

Another test addresses T2, human 5-HT1A receptor (Homo sapiens, UniProt P08908).
T2 construct: expressed in transfected cells
T2 sequence (P08908 1-422): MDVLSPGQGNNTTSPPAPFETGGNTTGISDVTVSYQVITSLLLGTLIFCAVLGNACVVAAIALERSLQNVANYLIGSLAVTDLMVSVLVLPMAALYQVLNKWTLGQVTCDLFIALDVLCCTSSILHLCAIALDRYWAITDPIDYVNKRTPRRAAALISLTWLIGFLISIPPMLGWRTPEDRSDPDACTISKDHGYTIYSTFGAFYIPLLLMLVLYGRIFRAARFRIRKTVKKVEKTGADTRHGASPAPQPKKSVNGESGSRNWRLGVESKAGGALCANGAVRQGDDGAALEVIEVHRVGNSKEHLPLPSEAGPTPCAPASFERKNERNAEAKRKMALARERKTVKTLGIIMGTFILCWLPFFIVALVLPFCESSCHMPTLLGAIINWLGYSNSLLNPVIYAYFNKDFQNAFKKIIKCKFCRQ
In words: In vitro functional activity: antagonism of 8-OH-DPAT inhibition of forskolin-stimulated cAMP production. Type of test: cell-based. To be noted: antagonism of 10 nM 8-OH-DPAT inhibition of forskolin-stimulated cAMP production; read-out: 5-HT1A Antagonist Activity cAMP Assay IC50.

For test [3], the target named is T3, cloned human 5-HT1A receptors (Homo sapiens, UniProt P08908).
T3 construct: expressed in transfected cells; host or cells: CHO cells
T3 sequence (P08908 1-422): T2 sequence (P08908 1-422)
In words: Binding to cloned human 5-HT1A receptors in CHO cells, [3H]8-OH-DPAT radioligand. To be noted: read-out: 5-HT1A Affinity Ki.

The target in test [4] is T1, 5-HT1A. In words: Fixed Responding Model, in vivo 5-HT1A antagonism of 8-OH-DPAT-induced decrease in response rate. On the set-up: species or system rats. Here is the method: The ability of the compounds to function in vivo as 5-HT1A antagonists was assessed in rats using a Fixed Responding Model (D. Blackman, in “Operant Conditioning: An Experimental Analysis of Behavior”, J. Butcher, ed., Methuen and Co., Ltd., London). In this model rats are trained to respond (lever pressing) under a fixed-ratio 30 schedule of food presentation in order to receive a food pellet reinforcer. […] The 5-HT1A antagonist activity of a test compound is determined by measuring its ability to antagonize this agonist-induced decrease in response rate.

The text below walks through data of patent US7425558B2, “Serotonergic agents for treating sexual dysfunction” (Wyeth, priority 2000, dated 2008).

Some results are limits rather than exact numbers.

For the compound “(R)-N-(2-methyl-(4-indolyl-1-piperazinyl)ethyl)-N-(2-pyridinyl)cyclohexanecarboxamide [Example compound 3]”, in test [1], the “Reversal of fluoxetine-induced sexual dysfunction” value was “complete and significant reversal”; the “Prevention of deficit in non-contact penile erections produced by chronic fluoxetine” value is given as “prevented the deficit in non-contact penile erections”. Besides, the “Reversal of deficits in number of non-contact penile erections” value in test [1] (single dose 0.1 mg/kg on day 14 of fluoxetine 10 mg/kg/day i.p.) is recorded as “full reversal”. The “Reversal of deficits in number of non-contact penile erections” value in test [1] (single dose 1.0 mg/kg on day 14 of fluoxetine 10 mg/kg/day i.p.) was “full reversal”.
Turning to `COc1ccccc1N1CCN(CCN(C(=O)C2CCCCC2)c2ccccn2)CC1` [Example compound 2, N-[2-[4-(2-methoxyphenyl)-1-piperazinyl]ethyl]-N-(2-pyridinyl)cyclohexanecarboxamide], in test [1], the “Reversal of fluoxetine-induced sexual dysfunction” value is “complete and significant reversal”; the “Prevention of deficit in non-contact penile erections produced by chronic fluoxetine” value is “prevented the deficit in non-contact penile erections”. In test [1] (single acute dose after a period of drug-induced sexual dysfunction), the “Effect on drug-induced sexual dysfunction” value was “ameliorated sexual dysfunction”.
For `CNCCC(Oc1ccc(C(F)(F)F)cc1)c1ccccc1` (stereo not drawn) [fluoxetine, N-methyl-3-(p-trifluoromethylphenoxy)-3-phenylpropylamine, reference compound], the “Sexual dysfunction (number of non-contact penile erections in 30 minutes)” value in test [1] (chronic (14 days) fluoxetine 10 mg/kg i.p.) and in test [1] (sub-chronic (7 days) fluoxetine 10 mg/kg i.p.) was “significant increase in sexual dysfunction” throughout.
One may read the IC50 as the midpoint of a concentration-inhibition curve. The Ki is a dissociation constant, usually derived from enzyme kinetics or from competition with a known ligand. `C[C@H](CN(C(=O)c1ccc(C#N)cc1)c1ccccn1)N1CCN(c2cccc3c2OCCO3)CC1` [Example 1, (R)-4-Cyano-N-{2-[4-(2,3-Dihydro-Benzo[1,4]dioxin-5-yl)-Piperazin-1-yl]-Propyl}-N-Pyridin-2-yl-Benzamide]: the “Antagonism of agonist-induced decrease in responding” value on 5-HT1A [2] (30 minutes after administration) is on record as “completely antagonize”. The compound further showed a Duration of action on 5-HT1A [2] (Fixed Responding Model, sc) greater than 4 h. Further, on 5-HT1A [2] (administered 30 minutes prior to 8-OH-DPAT), the “Dose Which Shifts Agonist Dose-response Curve by 10-fold” value is 1.0 mg/kg, sc. Moreover, the results for the “5-HT1A antagonist effect on response rate” value at 5-HT1A [2] (agonist given 2 hours following test drug administration) and at 5-HT1A [2] (four hours post-administration) were “complete 5-HT1A antagonist effects” and “complete antagonism”, respectively. For the same compound, the “% Response Rate, 0.5 hour pretreatment” value at 5-HT1A [2] (test compound sc (Table 3 dose) 0.5 hour before 0.3 mg/kg 8-OH-DPAT, 100% = vehicle control response rate) worked out at 100 ± 7%. Also, the “% Response Rate, 2 hour pretreatment” value on 5-HT1A [2] (test compound sc (Table 3 dose) 2 hours before 0.3 mg/kg 8-OH-DPAT, 100% = vehicle control response rate) was determined as 118 ± 13%. The “% Response Rate, 4 hour pretreatment” value at 5-HT1A [2] (test compound sc (Table 3 dose) 4 hours before 0.3 mg/kg 8-OH-DPAT, 100% = vehicle control response rate) was 99 ± 16%. The IC50 at human 5-HT1A receptor was 25 nM. In test [3], the inhibition constant Ki stood at 1.6 nM. Moreover, the “Reversal of decrease in response rate induced by 8-OH-DPAT” value at 5-HT1A [4] (1 mg/kg dose, 0.3 mg/kg 8-OH-DPAT) was “completely reverses”. Further, the “Response Rate” value on 5-HT1A [4] (8-OH-DPAT (0.3 mg/kg sc) + Example compound 1 (1 mg/kg sc), vehicle control 2.4 ± 0.5) was 2.5 ± 0.2 responses/second.
